Measurements published in US5840722A, “Use of carboxylic acid derivatives as drugs” (BASF Aktiengesellschaft, priority 1994, dated 1998).
pIC50, pKi: −log10 of the molar value. Read-outs that look alike come from different tables or passages of the source.

Legend:
[1] = biological target: T1, ETB receptor (Cavia porcellus, UniProt H0VTF3); assay: Receptor-binding studies, ETB receptor binding assay ([125I]-RZ3, guinea pig cerebellar membranes)
T1 construct: Guinea pig cerebella were homogenized in a Potter-Elvejhem homogenizer; from tissue; host or cells: guinea pig cerebellum (membranes)
T1 sequence (H0VTF3 27-415): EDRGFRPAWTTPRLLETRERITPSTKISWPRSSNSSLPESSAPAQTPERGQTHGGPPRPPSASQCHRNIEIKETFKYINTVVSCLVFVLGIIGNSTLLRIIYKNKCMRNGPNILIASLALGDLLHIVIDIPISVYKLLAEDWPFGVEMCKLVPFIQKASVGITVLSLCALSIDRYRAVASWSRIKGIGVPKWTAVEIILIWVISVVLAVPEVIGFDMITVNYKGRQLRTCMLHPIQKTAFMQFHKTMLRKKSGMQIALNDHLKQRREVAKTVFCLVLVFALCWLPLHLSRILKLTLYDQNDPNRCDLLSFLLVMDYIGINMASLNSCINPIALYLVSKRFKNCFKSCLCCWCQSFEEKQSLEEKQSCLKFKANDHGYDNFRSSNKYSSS
Method: Cloned human ETA receptor-expressing CHO cells and guinea pig cerebellar membranes with>60% ETB receptors compared with ETA receptors were used for binding studies.
Guinea pig cerebella were homogenized in a Potter-Elvejhem homogenizer and obtained by differential centrifugation at 1000×g for 10 min and repeated centrifugation of the supernatant at 20,000×g for 10 min.
(§1) (ETB receptor assay) in the presence and absence of test substance. The non-specific binding was determined using 10^-7 M ET1. After 30 min, the free and the bound radioligand were separated by filtration through a GF/B glass fiber filter (Whatman, England) in a Skatron cell collector (Skatron, Lier, Norway), and the filters were washed with ice-cold tris-HCl buffer, pH 7.4 with 0.2% BSA. The radioactivity collected on the filters was quantified using a Packard 2200 CA liquid scintillation counter.
The Ki values were determined by non-linear regression analysis using the LIGAND program.

[2] = biological target: T2, endothelin receptor of subtype A (Rattus norvegicus, UniProt P26684); assay: Functional in vitro assay system for endothelin receptor (subtype A) antagonists (ET1-induced intracellular calcium increase); assay type: cell-based
T2 construct: endogenous endothelin receptor of subtype A has been detected; endogenous in cells
T2 sequence (P26684 21-426): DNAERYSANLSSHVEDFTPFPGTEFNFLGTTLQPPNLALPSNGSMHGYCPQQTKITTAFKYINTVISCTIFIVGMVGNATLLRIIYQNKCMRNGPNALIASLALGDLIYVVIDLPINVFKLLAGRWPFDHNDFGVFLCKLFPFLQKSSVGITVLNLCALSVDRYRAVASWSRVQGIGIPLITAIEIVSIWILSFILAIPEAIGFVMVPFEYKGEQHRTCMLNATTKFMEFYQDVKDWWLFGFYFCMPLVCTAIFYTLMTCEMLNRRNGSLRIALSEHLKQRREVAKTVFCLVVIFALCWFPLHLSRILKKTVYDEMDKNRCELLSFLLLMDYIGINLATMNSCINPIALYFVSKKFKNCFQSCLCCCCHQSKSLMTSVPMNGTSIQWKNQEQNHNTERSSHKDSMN
Source text: Functional in vitro assay system for searching for endothelin receptor (subtype A) antagonists This assay system is a functional cell-based assay for endothelin receptors. Certain cells when stimulated with endothelin 1 (ET1) show an increase in the intracellular calcium concentration. This increase can be measured in intact cells which have been loaded with calcium-sensitive dyes. […] The cells were then washed twice with buffer A and resuspended at 2 10^6 /ml. The fluorescence signal at Ex/Em 380/510 from 2×10^5 cells per mL was recorded continuously at 30° C. The test substances were added to the cells and, after incubation with ET1 for 3 min, the maximum change in the fluorescence was determined. The response of the cells to ET1 without previous addition of a test substance served as control and was set equal to 100%.

[3] = biological target: T3, human ETA receptor (Homo sapiens, UniProt P25101); assay: Receptor-binding studies, ETA receptor binding assay ([125I]-ET1)
T3 construct: expressed in transfected cells; host or cells: CHO cells (membranes)
T3 sequence (P25101 21-427): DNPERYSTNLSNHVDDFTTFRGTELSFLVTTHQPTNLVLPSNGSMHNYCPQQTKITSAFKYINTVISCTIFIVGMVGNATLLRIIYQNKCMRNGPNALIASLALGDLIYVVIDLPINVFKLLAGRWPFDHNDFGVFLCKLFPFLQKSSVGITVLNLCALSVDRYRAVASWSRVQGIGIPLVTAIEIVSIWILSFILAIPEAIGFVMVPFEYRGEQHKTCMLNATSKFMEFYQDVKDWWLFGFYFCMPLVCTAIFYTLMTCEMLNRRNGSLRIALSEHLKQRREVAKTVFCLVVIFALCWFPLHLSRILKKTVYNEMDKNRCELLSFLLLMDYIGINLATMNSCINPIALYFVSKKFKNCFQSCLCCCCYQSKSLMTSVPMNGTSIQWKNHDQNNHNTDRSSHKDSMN
Method: as §1, with “After 48 h, the cells were washed with PBS and incubated with 0.05% trypsin-containing PBS for 5 min. […] The membranes were centrifuged at 20,000×g for 10 min, and the pellet was stored in liquid nitrogen. […] (ETB” for “(ETB”, “counter. The Ki values were determined by non-linear regression analysis using the LIGAND program.” for “counter.”

| pKi ([1]; guinea pig cerebellar membranes, 25 pM [125I]-RZ3, 25° C., 30 min, read-out: Ki ET-B) | pIC50 ([2]; rat fibroblasts loaded with Fura 2-am, ET1-induced fluorescence change, 30° C., read-out: IC50) | pKi ([3]; cloned human ETA receptor-expressing CHO cell membranes, 25 pM [125I]-ET1, 25° C., 30 min, read-out: Ki ET-A) | Structure (SMILES) | pKi [1] | pIC50 [2] | pKi [3] |
| --- | --- | --- | --- | --- | --- | --- |
| 5.52 | 6.13 | 6.60 | COc1cc(OC)nc(OC(C(=O)O)C(C)(Oc2ccc(C(C)C)cc2)c2ccccc2)n1 (stereo not drawn) [Compound 4.42] | – | – | – |
| – | – | – | COc1cc(OC)nc(OC(C(=O)O)C(C)(Oc2ccc(SC)cc2)c2ccccc2)n1 (stereo not drawn) [Compound 4.58] | 5.33 | 6.00 | 6.80 |
